Experimental data taken from article PMC10319141, “Imidazoquinolines with improved pharmacokinetic properties induce a high IFNα to TNFα ratio in vitro and in vivo” (Frontiers in Immunology, 2023).
Where two headings read alike, the source gives them in different places.

Experiments:
[1] = Stability in whole blood, U937 and RPMI; type: in vitro ADME, human; settings: 1 µM, 37°C, over 24 h; in words
Protocol: Human blood products used in the in vitro assays (for cell stimulation and stability) were obtained from the center for transfusion medicine in Tübingen, Germany (Zentrum für Klinische Transfusionmedizin Tübingen GmbH, (ethical approval number ZKT-FoPro202106-2305-01). Test compounds (1 µM) in either culture medium (RPMI-1640 medium containing 10% fetal bovine serum, 60 mg/l Penicillin G sodium salt and 100 mg/l Streptomycin sulfate (all Biowest)), human blood (diluted 1:1 with culture medium) or a suspension of 5x10^6 cells/ml U937 in culture medium were incubated at 37°C, 450 rpm on a shaking incubator. At the indicated time points 50 µL of blood, cell suspension or medium were collected and prepared for HPLC-MS/MS-Analysis as detailed below.
All samples were extracted with 3 or 6 volumes acetonitrile containing terbuthylazine as an internal standard (ACN) relative to either sample weight or volume. Liquid samples (plasma, culture medium, cell suspensions in stability experiments) were diluted in either 3 (culture medium, cell suspensions) or 6 (plasma) volumes ACN, pellet and blood samples were extracted by addition of ACN followed by sonication for 5 min. […]
Quantification of analytes was performed on an Agilent 1260/1290 Infinity system fitted with an Agilent C18 Poroshell 120 column (4.6 x 50 mm, 2.7 µm) coupled to a triple quadrupole Sciex API 4000 MS/MS detector. […]

[2] = Cassette bioavailability i.v., i.p., p.o. (blood and organ concentrations by HPLC-MS/MS); type: in vivo, C57BL/6 mice; settings: for concentration at 1440 min / Cmax: female, C57BL/6, mouse; for Cmax: 15 min after application
Protocol: (§1) All samples were extracted with 3 or 6 volumes acetonitrile containing terbuthylazine as an internal standard (ACN) relative to either sample weight or volume. Liquid samples (plasma, culture medium, cell suspensions in stability experiments) were diluted in either 3 (culture medium, cell suspensions) or 6 (plasma) volumes ACN, pellet and blood samples were extracted by addition of ACN followed by sonication for 5 min. Organ samples were digested with 0.5 µg/mg Proteinase K (Genaxxon) for 1 h at 50°C before being homogenized using a Fastprep FP-24 5G instrument (MP-Biomedicals). Homogenates were diluted with 6 volumes ACN and homogenized again. All extracts were cleared by centrifugation at ~20.000xg for 10 min at 4°C.
(§2) Quantification of analytes was performed on an Agilent 1260/1290 Infinity system fitted with an Agilent C18 Poroshell 120 column (4.6 x 50 mm, 2.7 µm) coupled to a triple quadrupole Sciex API 4000 MS/MS detector. The mobile phase was composed of water containing 0.1% formic acid (eluent A) and acetonitrile containing 0.1% formic acid (eluent B). Gradient used was: 5% B for 0.5 min, to 100% B in 4.5 min, 100% B for 2 min, to 5% B in 0.5 min, 5% for 2.5 min. MS detection parameters are listed in SI Table S1 .
Experimental Animals. All animal experiments were carried out in accordance with German law (35/9183.81-7/SYN 06/20). Mice, 8-18 weeks old, were purchased from Janvier Laboratories and maintained in a specific-pathogen-free animal facility with chow and water ad libitum. After arrival mice acclimated for a minimum of 7 days.
(§3) Formulation. Test compounds were prepared for application in either 1% Tween 80, 9% PEG400 in ultrapure water (Biowest) (i.v., i.p., p.o. application) or 5 mM citric acid in 0.9% saline (Braun) (subcutaneous application). If compounds were administered subcutaneously, injections were carried out into the neck crease.
(§4) Collection of Samples. Mice were bled from the tail vein at various timepoints. Heparin (Sigma) or K2-EDTA (Sigma) was added to blood samples to a final […] concentration of 10-15 Unit or 5 mM. Plasma was generated by centrifugation at 6800xg for 8 min at 4°C and stored at -80°C until analyzed by ELISA or CBA. Animals were sacrificed after the indicated time points by CO2 inhalation. Heart blood and organs for compound quantification by HPLC-MS/MS were collected post mortem and stored at –20°C until extracted as described above.
Figure 3 Stability and bioavailability of macrolide conjugates. (A) Stability of A1-mac and A2-mac was measured in human blood, U937 monocytes and RPMI medium over 24 h. […] (B) Peripheral blood was collected 15, 30 60, 120, 180, 240, 360 and 1440 min after compound administration. (C) Organs were sampled 1440 min after compound administration. (A–C) Data are presented as mean ± SD.

[3] = Compound concentrations in organs and plasma after three consecutive daily s.c. treatments (Figure 6B, S7); type: in vivo, mice; settings: for compound plasma level at peak: s.c.; for concentration at 4 h / concentration at 28 h / concentration at 52 h: mouse, liver, sc, read-out: concentration in liver; for concentration at 4 h / concentration at 28 h / concentration at 52 h / levels in brain tissue / concentration in liver: repeated daily s.c. treatment; for levels in brain tissue: in words
Protocol: as §1, §2, §3, §4
(§5) Dotted lines indicate the time of repeated compound applications. (A) Cytokine levels in pooled tail plasma of mice from individual treatment groups (n=3 per pool and time point), error bars represent range of two replicate measurements. (B) Peripheral blood was collected from the tail vein before, 15, 30 60, 120, 240, 360 and 480 min after s.c. treatment. Compound concentration in peripheral plasma was analyzed by HPLC-MS/MS, data presented as mean ± SD.
Samples were collected 4 h, 28 h and 52 h after s.c. treatment. Skin samples were sampled
at time points 4 h and 52 h. Compound concentrations were analyzed by HPLC-MS/MS, data

[4] = tested on: TNFα and IFNα in peripheral plasma; assay: Cytokine profile in peripheral plasma after equimolar s.c. doses (Figure 4B, Table 2 top); type: in vivo, C57BL/6 mice; settings: for IFNα AUC / TNFα AUC: 8 h period, equimolar doses (top section), pooled plasma of 3 animals; for IFNα plasma levels over the study period: in words
Protocol: (§6) Cytokine concentrations in samples were quantified either by ELISA (hTNFα, R&D Systems; hIFNα, Mabtech) or cytometric bead arrays (CBA, LegendPlex mouse anti-virus response panel, BioLegend) according to the manufacturer’s instructions. CBAs were acquired on a ZE5 Cell Analyzer (Bio-Rad) and analyzed using the LegendPlex Software Suite (Qognit/BioLegend). Absorbance of ELISA-samples was quantified using a Versamax microplate reader (Molecular Devices).
as §3, §4
(A) Organs were sampled 8 h after treatment and compound concentration was determined via HPLC-MS/MS. Data are presented as mean ± SD. (B) Cytokine levels in tail plasma over time were determined via cytometric bead array. At each sampling timepoint the plasma of mice in one treatment group was pooled.

[5] = tested on: Human peripheral blood; assay: Full blood stimulation assay (TNFα/IFNα by ELISA); type: cell-based; settings: 6 h, 8 donors, normalized to maximal concentration per donor; in words
Protocol: Human peripheral blood of healthy donors was diluted in an equal volume of culture medium as described in 3.2, blood was treated with test compounds or controls at various concentrations and incubated at 37°C, 5% CO2 for 6 h. Cells were pelleted by centrifugation at 400xg for 5 min and supernatants were collected.
as §6

[6] = tested on: TNFα and IFNα in peripheral plasma; assay: Cytokine induction after three consecutive daily s.c. treatments (Figure 6A, C); type: in vivo, mice; settings: in words; for type I Interferon concentrations in plasma after the second treatment: repeated daily s.c. treatment; for secretion of TNFα after repeated treatments in comparison with IMQ and RSQ: three daily s.c. treatments
Protocol: as §6, §3, §4, §5

[7] = kidney, ip, i.p. 2 mg/kg, organs sampled 1440 min after administration, read-out: concentration in kidney
[8] = liver, ip, i.p. 2 mg/kg, organs sampled 1440 min after administration, read-out: concentration in liver
[9] = whole blood (tail vein), iv, i.v. 0.5 mg/kg, tail vein blood
[10] = day 1, 60 min after application
[11] = day 2, 60 min after application
[12] = day 3, 60 min after application

Row | Structure (SMILES) | stability in whole blood and cell based (U937) assays [1] | concentration at 1440 min [2, 7] [nM] | concentration at 1440 min [2, 8] [nM] | Cmax [2, 9] [nM] | Cmax ([2]; whole blood, ip, i.p. 2 mg/kg) [nM] | Cmax ([2]; whole blood, po, p.o. 2 mg/kg) [nM] | compound plasma level at peak [3, 10] | compound plasma level at peak [3, 11] | compound plasma level at peak [3, 12] | concentration at 4 h ([3]; after 4 h) [nM] | concentration at 28 h ([3]; after 28 h) [nM] | concentration at 52 h ([3]; after 52 h) [nM] | levels in brain tissue [3] | IFNα AUC ([4]; 3 µmol/kg s.c.) [pg·min/mL] | TNFα AUC ([4]; 3 µmol/kg s.c.) [pg·min/mL] | IFNα AUC ([4]; 6 µmol/kg s.c.) [pg·min/mL] | TNFα AUC ([4]; 6 µmol/kg s.c.) [pg·min/mL] | IFNα AUC ([4]; 12 µmol/kg s.c.) [pg·min/mL] | TNFα AUC ([4]; 12 µmol/kg s.c.) [pg·min/mL] | time of TNFα plasma peak post treatment ([4]; 3, 6, 12 µmol/kg s.c.) [min] | further results
1 | CCCCc1nc2c(N)nc3ccccc3c2n1CC1CCN(C(=O)CN(C)CC(=O)N(C)[C@H]2C[C@@H](C)O[C@@H](O[C@@H]3[C@@H](C)[C@H](O[C@H]4C[C@@](C)(OC)[C@@H](O)[C@H](C)O4)[C@@H](C)C(=O)O[C@H](CC)[C@@](C)(O)[C@H](O)[C@@H](C)N(C)C[C@H](C)C[C@@]3(C)O)[C@@H]2O)CC1 [A2-mac] | stable | 449 | 2520 | 352 | 138 | 22 | – | – | – | – | – | – | – | – | – | – | – | – | – | – | –
2 | CCCCc1nc2c(N)nc3ccccc3c2n1CCC1CCNCC1 [A1] | – | – | – | – | – | – | 171 nM | 85 nM | 66 nM | 63 | 82 | 94 | baseline or close to baseline levels | 660000 | 6500 | 1.3e+06 | 17000 | 2.5e+06 | 35000 | 120 | IFNα plasma levels over the study period ([4]; 3, 6, 12 µmol/kg s.c.): stayed elevated over the 8 h period; relative IFNα induction in human blood [5]: robust and similar; type I Interferon concentrations in plasma after the second treatment [6]: at the limit of detection; secretion of TNFα after repeated treatments in comparison with IMQ and RSQ [6]: remained low
3 | CCCCc1nc2c(N)nc3ccccc3c2n1CCC1CCN(C(=O)CN(C)CC(=O)N(C)C2CC(C)OC(OC3C(C)C(OC4CC(C)(OC)C(O)C(C)O4)C(C)C(=O)OC(CC)C(C)(O)C(O)C(C)N(C)CC(C)CC3(C)O)C2O)CC1 (stereo not drawn) [A1-mac] | stable | 586 | 3390 | 392 | 299 | 28 | 755 nM | 585 nM | 639 nM | 2620 | 4460 | 6350 | baseline or close to baseline levels | 420000 | 6900 | 920000 | 24000 | 3.1e+06 | 76000 | 90 | IFNα plasma levels over the study period ([4]; 3, 6, 12 µmol/kg s.c.): stayed elevated over the 8 h period; relative IFNα induction in human blood [5]: robust and similar; type I Interferon concentrations in plasma after the second treatment [6]: at the limit of detection; secretion of TNFα after repeated treatments in comparison with IMQ and RSQ [6]: remained low
4 | CCOCc1nc2c(N)nc3ccccc3c2n1CC(C)(C)O [RSQ, Resiquimod, reference compound] | – | – | – | 854 | 123 | 41 | < LLOQ | < LLOQ | < LLOQ | – | – | – | baseline or close to baseline levels | 2.2e+06 | 330000 | 780000 | 280000 | 800000 | 260000 | 90 | concentration in liver ([3]; after 4 h): < LLOQ; concentration in liver ([3]; after 28 h): < LLOQ; concentration in liver ([3]; after 52 h): < LLOQ; TNFα plasma AUC, times larger than the area for any A1 or A1-mac treated group ([4]; 3 µmol/kg RSQ s.c.): about 4 times; peak TNFα concentrations, times higher than in A1 or A1-mac groups ([4]; 3, 6, 12 µmol/kg s.c.): over 10 times; time at which TNFα and IFNα plasma levels fall close to baseline ([4]; 3, 6, 12 µmol/kg s.c.): 240 min; time of IFNα plasma peak post treatment ([4]; 3, 6, 12 µmol/kg s.c.): 90 min; time of maximal IFNα plasma levels post application ([4]; abstract, in vivo murine): 1 h; TNFα concentrations in supernatants of human blood [5]: highest TNFα concentrations; concentration in liver ([2]; i.p. 2 mg/kg, organs sampled 1440 min after administration): < LOD
